Data published in patent US20250339447A1, “19-NOR C3,3-DISUBSTITUTED C21-N-PYRAZOLYL STEROID AND METHODS OF USE THEREOF” (Sage Therapeutics, Inc., priority 2018, published 2025).

Assays:
[1] = system: female subjects diagnosed with severe postpartum depression; experiment: Placebo-controlled study of Compound 1 capsules in severe postpartum depression (Example 1); assay type: in vivo, human
Experimental: Compound 1 was investigated for use in subjects with depression. Female subjects (18-65 years old) diagnosed with severe postpartum depression (PDD) with a HAM-D total score of greater than or equal to 26 at screening and Day 1 were used in the investigation. The subjects were dosed once per day with capsules containing 30 mg of Compound 1. The dose could be adjusted to capsules containing 20 mg of Compound 1 if the 30 mg dose was not tolerated. Subjects not dosed with Compound 1 were dosed with a placebo. In total, 78 subjects were treated with Compound 1 at 30 mg and 73 subjects were treated with placebo.
Assuming a 2-sided test at an alpha level of 0.05, a sample size of approximately 65 evaluable subjects per treatment group provided 90% power to detect a placebo-adjusted treatment difference of approximately 4 points in the primary endpoint, change from baseline in HAM-D total score at Day 15 assuming standard deviation (SD) of 7 points. The change from baseline in the HAM-D total score was analyzed using a mixed effects model for repeated measures (MMRM). The model included the change from baseline at each visit as the dependent variable. The main comparison was (difference in least mean square [LSMEAN]) between Compound 1 Capsules and placebo at the 15-day timepoint.
For Model-based point estimates (i.e., LSMEAN, 95% confidence intervals, and p-values), an unstructured covariance structure was used to model the within-subject errors. If there was a convergence issue with the unstructured covariance model, Toeplitz, compound symmetry or Autoregressive (1) (AR[1]) covariance structure was used, following this sequence until convergence was achieved. […] When the covariance structure was not UN, the sandwich estimator for the variance-covariance matrix was derived, using the EMPIRICAL option in the PROC MIXED statement in SAS.
Similarly, an MMRM was used for the analysis of the following variables: changes from baseline in MADRS total score and HAM-A total score, and select individual item and subscale scores. For each model, the comparison of interest was between Compound 1 Capsules and matching placebo at the 15-day time point. Model-based point estimates (i.e., LS means), 95% confidence intervals, and p-values were reported.

[2] = system: adult patients diagnosed with MDD (MADRS total score ≥32 and HAM-D total score ≥22); experiment: Double-blind, randomized placebo-controlled Phase 3 study in Major Depressive Disorder (Example 5); assay type: in vivo, human; conditions: for overall incidence of patients who experienced AEs: 14-day treatment period and 28-day follow up, placebo 48.9%; for Fatigue incidence: placebo 2.6%; for Sedation incidence / treatment emergent AEs leading to study drug discontinuation: placebo 3.2%; for Dizziness incidence: placebo 3.7%; for Somnolence incidence: placebo 4.2%; for Nausea incidence: placebo 4.7%; for Diarrhea incidence: placebo 5.3%; for Headache incidence: treatment and 28-day follow up, placebo 7.4%
Experimental: Compound 1 was evaluated in a double-blind, randomized placebo-controlled Phase 3 study in Major Depressive Disorder (MDD). The evaluated the efficacy, safety and pharmacokinetics of Compound 1 in adult patients diagnosed with MDD (MADRS total score ≥32 and a HAM-D total score ≥22).
Compound 1 was administered to a patient, either in 20 mg daily doses once a day for 14 days or 30 mg once a day for 14 days.
Post-hoc analyses were conducted to evaluate the effects of performance factors of Compound 1 in the primary analysis, in patients with measurable drug concentrations, in patients with HAM-D≥24, and in patients with measurable drug concentrations and HAM-D≥24, and including the primary outcome at Day 15 (FIG. 11).

subjects with MDD [3] = experiment: Phase 2 study in subjects with MDD (dose justification); assay type: in vivo, human; conditions: 30 mg per day
Source text: (§1) Dose adjustments to 20-mg of Compound 1 were permitted; 20-mg of Compound 1 was anticipated to be well tolerated as it was lower than the maximum tolerated dose level.

[4] = Previous clinical trials, morning versus evening administration; assay type: in vivo, human
Source text: as §1

subjects with MDD [5] = experiment: HAM-D course to Day 42 after a Compound 1 treatment cycle (source study not given); assay type: in vivo, human
Source text: Because of this, most subjects were eligible (i.e., PHQ-9 ≥10 and HAM-D ≥20 confirmed over 2 weeks) for a Compound 1 treatment cycle when needed; a 2-week period was required to establish a new MDE (DSM-5).

[6] = system: synaptic and extrasynaptic GABAA receptors; experiment: Modulation of GABAA receptors; conditions: stated in background
[7] = Day 42, among subjects achieving remission or response at Day 15

SMILES: C[C@@]1(O)CC[C@H]2[C@H](CC[C@@H]3[C@@H]2CC[C@]2(C)[C@@H](C(=O)Cn4cc(C#N)cn4)CC[C@@H]32)C1 [Compound 1]
- overall efficacy conclusion ([1]; 30 mg once a day for 15 days, compared to placebo): effective at treating postpartum depression
- mean decrease from baseline in HAM-D total score ([1]; 30 mg once daily, Day 15, mean baseline 28.4 (2.09), placebo −13.6 (8.31)): −18.0 (8.36)
- model-based between treatment group difference in HAM-D total score change (95% CI) ([1]; 30 mg vs placebo, Day 15, MMRM, p 0.0029): −4.2 (−6.9, −1.5)
- model-based between treatment group difference in HAM-A total score change (95% CI) ([1]; 30 mg vs placebo, Day 15, p 0.0063): −3.90 (−6.7, −1.1)
- model-based between treatment group difference in MADRS total score change (95% CI) ([1]; 30 mg vs placebo, Day 15, p=0.0182): −4.6 (−8.3, −0.8)
- CGI-I response, model-based odds ratio (95% CI) ([1]; 30 mg vs placebo, Day 15, p=0.0280): 2.15 (1.09, 4.27)
- HAM-D response, model-based odds ratio (95% CI) ([1]; 30 mg vs placebo, p=0.0050): 2.63 (1.34, 5.16)
- HAM-D remission, model-based odds ratio (95% CI) ([1]; 30 mg vs placebo, p=0.0122): 2.50 (1.22, 5.11)
- CGI-I response rate ([1]; 30 mg, Day 15, 53/74 subjects, placebo 38/73 (52.1%)): 71.6%
- mean decrease from baseline in MADRS total score ([1]; 30 mg, Day 15, baseline 34.9 (4.41), placebo −17.7 (11.72)): −22.0 (11.64)
- mean decrease from baseline in HAM-A total score ([1]; 30 mg, Day 15, mean baseline 26.1 (5.88), placebo −12.9 (8.57)): −16.5 (9.51)
- HAM-D remission rate ([1]; 30 mg, 33/74 subjects, placebo 17/73 (23.3%)): 44.6%
- HAM-D response rate ([1]; 30 mg, 53/74 subjects, placebo 35/73 (47.9%)): 71.6%
- tolerability in the trial ([2]; 20 mg and 30 mg): generally well tolerated
- separation from placebo ([2]; 20 mg once a day for 14 days): did not separate from placebo
- overall incidence of patients who experienced AEs ([2]; 20 mg): 50.0%
- patients reporting SAEs during follow-up ([2]; 20 mg, complications of cocaine ingestion, Day 39): one
- Fatigue incidence ([2]; 20 mg): 1.6%
- Sedation incidence ([2]; 20 mg): 5.9%
- treatment emergent AEs leading to study drug discontinuation ([2]; 20 mg): 1.6%
- Dizziness incidence ([2]; 20 mg): 7.4%
- Somnolence incidence ([2]; 20 mg): 5.9%
- Nausea incidence ([2]; 20 mg): 5.3%
- Diarrhea incidence ([2]; 20 mg): 5.9%
- Headache incidence ([2]; 20 mg): 11.2%
- HAM-D total score, LS Mean Difference from placebo ([2]; 30 mg (n=166) vs placebo (n=157), Day 3, p=0.016): −1.6
- reduction in depressive symptoms in the HAM-D total score ([2]; 30 mg once a day for 14 days, Day 15 (primary endpoint), placebo 11.2): 12.6
- HAM-D total score, LS Mean Difference, post-hoc ([2]; 30 mg vs placebo, Day 15, patients with HAM-D≥24, p=0.032): −2.3
- HAM-D total score, LS Mean Difference from placebo ([2]; 30 mg, Day 8, p=0.008): −2.1
- HAM-D total score, LS Mean Difference from placebo ([2]; 30 mg, Day 12, p=0.018): −2.1
- HAM-D total score, LS Mean Difference from placebo ([2]; 30 mg, Day 15, p=0.115): −1.4
- change from baseline in HAM-D total score, post-hoc ([2]; 30 mg, Day 15, patients with HAM-D≥24 (n=124), placebo −11.4): −13.7
- change from baseline in HAM-D total score, post-hoc ([2]; 30 mg, Day 15, patients with measurable drug concentrations (n=151), placebo −11.2): −13.0
- change from baseline in HAM-D total score, post-hoc ([2]; 30 mg, Day 15, patients with measurable drug concentrations and HAM-D≥24 (n=115), placebo −11.4): −14.0
- HAM-D total score, LS Mean Difference from placebo ([2]; 30 mg, Day 42, p=0.807): −0.5
- change from baseline in HAM-D total score ([2]; 30 mg, Day 42, placebo −11.7): −11.9
- overall incidence of patients who experienced AEs ([2]; 30 mg): 54.2%
- Fatigue incidence ([2]; 30 mg): 6.8%
- Sedation incidence ([2]; 30 mg): 4.7%
- treatment emergent AEs leading to study drug discontinuation ([2]; 30 mg): 2.1%
- Dizziness incidence ([2]; 30 mg): 5.7%
- Somnolence incidence ([2]; 30 mg): 6.8%
- Nausea incidence ([2]; 30 mg): 3.6%
- Diarrhea incidence ([2]; 30 mg): 6.3%
- patients with serious adverse events (SAEs) during treatment ([2]; 30 mg, suicide attempt Day 5, bile duct stone after Day 2): Two
- patients reporting SAEs during follow-up ([2]; 30 mg, syncope and associated injuries, Day 28): one
- Headache incidence ([2]; 30 mg): 6.3%
- AEs of loss of consciousness ([2]; all groups): no AEs of loss of consciousness
- suicidal ideation or behavior by Columbia Suicide Severity Rating Scale (C-SSRS) ([2]; compared to baseline): no signal for increased suicidal ideation or suicidal behavior
- depressive symptoms in long-term follow-up ([2]; patients who completed long-term follow-up up to 6 months, preliminary data): maintenance of improvement in depressive symptoms
- efficacy and tolerability of the dose level (subjects with MDD [3]): efficacious and well-tolerated
- adverse effect observed ([4]; administered in the morning): sedation/somnolence
- tolerability ([4]; given in the evening): improved tolerability
- subjects achieving remission or response (subjects with MDD [5]; Day 15): 78.6%
- subjects with HAM-D score of 16 to 21 (subjects with MDD [5]; [7]): 18.2%
- subjects with HAM-D ≥22 (subjects with MDD [5]; [7]): 6.1%
- mode of action at GABAA receptors [6]: positive allosteric modulator
